According to ChEMBL document CHEMBL1201862, “PubChem BioAssay data set” (2004):
Calls of active or inactive are those of the source.

What was measured:
[1] = Luminescence Cell-Based Dose Retest to Confirm Inhibitors of Cancer Stem Cells. [Related pubchem assays (depositor defined):AID2717, AID2721]; assay type: functional; conditions: Homo sapiens
[2] = target: T1, CAAX prenyl protease 2 (Saccharomyces cerevisiae S288c, UniProt Q03530); assay type: biochemical
T1 sequence (Q03530 whole entry): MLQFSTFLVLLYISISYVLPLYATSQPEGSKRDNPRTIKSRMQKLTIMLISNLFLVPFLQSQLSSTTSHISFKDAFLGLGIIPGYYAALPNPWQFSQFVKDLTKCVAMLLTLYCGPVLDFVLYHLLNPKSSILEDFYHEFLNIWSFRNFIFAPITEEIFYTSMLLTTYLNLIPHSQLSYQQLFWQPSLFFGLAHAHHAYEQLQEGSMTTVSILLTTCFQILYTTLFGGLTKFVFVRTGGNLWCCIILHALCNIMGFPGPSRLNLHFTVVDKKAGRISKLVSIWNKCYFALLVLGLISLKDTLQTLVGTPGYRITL

[3] = viability loss of HMLE_sh_eGFP cells – cell-based, luminescence, counter-screen for HMLE_sh_ECad selective toxicity project, dose response (AID 463074); assay type: functional, Homo sapiens;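 further: HMLE human mammary epithelial cells expressing control shRNA against eGFP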
[4] = toxicity toward cultured mammalian cells – cell-based, plate reader, cherry-pick samples, cytotoxicity control, dose response (AID 504397); assay type: functional
[5] = target: CAAX prenyl protease 2 (Homo sapiens, UniProt Q9Y256); assay: inhibition of Ras-converting CAAX protease Rce1 – biochemical, yeast membranes, quenched-peptide fluorescence, cherry-pick, dose response (AID 588849)
[6] = target: T2, Microphthalmia-associated transcription factor (Homo sapiens, UniProt O75030); assay: reducers of TRPM1 reporter luminescence, concentration series – cell-based, SK-MEL-5, cherry-picked, set 3, MITF inhibitor project, dose response (AID 493073); assay type: functional;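 further: SK-MEL-5 melanoma cells with luciferase driven by the MITF target TRPM1 promoter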
T2 sequence (O75030 whole entry): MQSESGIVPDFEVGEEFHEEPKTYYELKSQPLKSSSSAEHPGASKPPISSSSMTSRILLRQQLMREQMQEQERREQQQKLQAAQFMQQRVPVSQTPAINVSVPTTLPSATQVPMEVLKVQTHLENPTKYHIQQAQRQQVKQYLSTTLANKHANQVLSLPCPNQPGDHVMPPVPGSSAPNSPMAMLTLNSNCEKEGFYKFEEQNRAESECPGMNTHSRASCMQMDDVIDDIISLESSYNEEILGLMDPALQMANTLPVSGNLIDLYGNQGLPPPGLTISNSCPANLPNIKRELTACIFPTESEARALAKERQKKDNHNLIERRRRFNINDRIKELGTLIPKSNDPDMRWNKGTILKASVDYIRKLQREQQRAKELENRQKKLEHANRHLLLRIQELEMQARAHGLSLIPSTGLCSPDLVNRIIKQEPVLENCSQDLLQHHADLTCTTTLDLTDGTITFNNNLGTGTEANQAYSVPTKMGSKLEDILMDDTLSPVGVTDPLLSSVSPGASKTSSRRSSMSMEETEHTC

[7] = system: A-375; assay: MITF: Counter assay: A375 proliferation Measured in Cell-Based System Using Plate Reader - 2084-03_Inhibitor_Dose_DryPowder_Activity. [Related pubchem assays (depositor defined):AID488944]; assay type: functional; conditions: Homo sapiens
[8] = system: A-375; assay: proliferation inhibition in MITF-low A375 cells – cell-based, cherry-pick samples, set 2, counter-screen for MITF modulator project, dose response (AID 540335); assay type: functional; conditions: Homo sapiens
[9] = Trypanosoma cruzi growth suppression in host cells – NIH3T3 host cells, beta-gal luminescence, confirmation (AID 2044); assay type: functional, cell-based;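 further: intracellular parasites grown in NIH/3T3 mouse fibroblasts as host cells; luminescent beta-galactosidase reporter signal from transgenic T. cruzi replicating inside host cells; inhibitors lower the luminescence signal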
[10] = NIH3T3 cell viability loss – ATP luminescence, mouse fibroblasts, counter-screen, dose response (AID 2010); assay type: functional, cell-based;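 further: cells exposed to compound for about 90 hours before reading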
[11] = system: Jurkat; assay: blockers of NF-kB activation in T cells – Jurkat, luciferase reporter, luminescence, B- and T-cell, dose response (AID 489004); assay type: functional, cell-based; conditions: Homo sapiens;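 further: NF-kB luciferase reporter Jurkat cells stimulated with PMA plus ionomycin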
[12] = HEK-293T viability loss, compound-treated – cell-based, uHTS hits, cytotoxicity control for B/T-cell NF-kB inhibitor project, dose response (AID 489019); assay type: functional;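 further: IC50 reflects cytotoxicity as loss of cell viability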
[13] = system: INS1; assay: INS-1E survival protection against cytokine death – cell-based, luminescence, retest, dose response (AID 449756); assay type: functional; conditions: Rattus norvegicus;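 further: cell death triggered by IL-1 beta plus TNF-alpha plus IFN-gamma mixture; protective hits raise ATP signal compared with cytokine alone wells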
[14] = decrease of insulin promoter-GFP reporter – imaging, high-content screening, mouse beta cells (AID 1628); assay type: functional; conditions: MIN6
[15] = MIN6 cell viability loss – mouse insulinoma, cytotoxicity control, dose response (AID 2122); assay type: functional;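 further: confirmatory high-throughput counterscreen run to flag cytotoxic compounds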
[16] = NIH-3T3 fibroblast cytotoxicity, dose response, cytotoxicity control, cell-based, fluorescence, Alamar Blue, secondary assay (AID 2327); assay type: functional;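 further: NIH-3T3 mouse fibroblasts cultured with fluconazole at 8 µg/mL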
[17] = fluconazole-exposed Candida albicans growth modulators – fluorescence, retest, confirmation (AID 2467); assay type: functional, cell-based
[18] = target: T3, Short transient receptor potential channel 4 (Mus musculus, UniProt Q9QUQ5); assay: calcium entry via TRPC4 opening agents – cell-based, HEK293 TRPC4/mu-opioid, Fluo-4 calcium, dose response (AID 434937); assay type: functional
T3 sequence (Q9QUQ5 whole entry): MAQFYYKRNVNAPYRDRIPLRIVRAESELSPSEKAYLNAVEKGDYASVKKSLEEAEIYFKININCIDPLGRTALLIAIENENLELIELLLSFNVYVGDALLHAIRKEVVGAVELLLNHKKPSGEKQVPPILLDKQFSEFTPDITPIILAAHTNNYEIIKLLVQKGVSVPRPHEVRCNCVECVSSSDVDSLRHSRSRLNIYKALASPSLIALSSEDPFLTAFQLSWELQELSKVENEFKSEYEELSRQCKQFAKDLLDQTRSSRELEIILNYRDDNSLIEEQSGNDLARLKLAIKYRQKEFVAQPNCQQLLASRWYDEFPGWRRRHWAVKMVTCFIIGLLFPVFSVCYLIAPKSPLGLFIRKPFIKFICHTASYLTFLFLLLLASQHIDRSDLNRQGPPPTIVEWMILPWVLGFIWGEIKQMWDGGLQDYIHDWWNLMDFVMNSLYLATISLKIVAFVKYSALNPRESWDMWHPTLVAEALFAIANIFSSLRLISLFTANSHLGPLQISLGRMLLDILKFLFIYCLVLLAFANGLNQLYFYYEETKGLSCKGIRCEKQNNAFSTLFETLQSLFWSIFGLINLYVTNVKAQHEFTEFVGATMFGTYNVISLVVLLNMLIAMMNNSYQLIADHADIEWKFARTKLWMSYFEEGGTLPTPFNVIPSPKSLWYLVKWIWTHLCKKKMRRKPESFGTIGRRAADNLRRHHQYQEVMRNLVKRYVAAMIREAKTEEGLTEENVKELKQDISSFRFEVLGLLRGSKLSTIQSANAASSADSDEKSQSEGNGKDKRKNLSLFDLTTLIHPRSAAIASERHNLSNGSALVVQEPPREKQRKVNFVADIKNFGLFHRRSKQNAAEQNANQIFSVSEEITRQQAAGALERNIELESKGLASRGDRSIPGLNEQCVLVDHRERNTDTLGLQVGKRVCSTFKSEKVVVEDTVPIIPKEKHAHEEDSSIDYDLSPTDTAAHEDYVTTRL

[19] = system: Vero; assay: cells; assay type: functional, cell-based; conditions: Chlorocebus sabaeus
[20] = system: Vero; assay: cells; assay type: functional; conditions: Chlorocebus sabaeus
[21] = T. cruzi infection blockers in NIH3T3 cells – beta-gal luminescence, NIH3T3 host cells, confirmation (AID 2630); assay type: functional, cell-based; conditions: Mus musculus
[22] = target: Delta-type opioid receptor (Homo sapiens, UniProt P41143); assay: Counterscreen for agonists of heterodimerization of the mu 1 (OPRM1) and delta 1 (OPRD1) opioid receptors: Luminescence-based cell-based high throughput dose response assay to identify agonists of OPRD1 homodimerization. [Related pubchem assays (depositor defined):AID504326, AID504355, AID504692, AID504904, AID504905]; assay type: functional
[23] = target: Mu-type opioid receptor (Homo sapiens, UniProt P35372); assay: Counterscreen for agonists of heterodimerization of the mu 1 (OPRM1) and delta 1 (OPRD1) opioid receptors: Luminescence-based cell-based high throughput dose response assay to identify agonists of OPRM1 homodimerization.; assay type: functional;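 further: U2OS cells expressing OPRM1 and beta-arrestin as split beta-galactosidase partners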
[24] = target: 5-hydroxytryptamine receptor 5A (Homo sapiens, UniProt P47898); assay: Counterscreen for agonists of OPRM1-OPRD1 heterodimerization: luminescence-based cell-based high throughput dose response assay to identify agonists of 5-hydroxytryptamine (serotonin) 5A receptor (HTR5A). [Related pubchem assays (depositor defined):AID504326, AID504355, AID504692, AID504904, AID504905]; assay type: functional
[25] = target: Voltage-gated inwardly rectifying potassium channel KCNH2 (Homo sapiens, UniProt Q12809); conditions: Potency;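 further: confirmatory quantitative high-throughput screen measuring inhibition of hERG channel activity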
[26] = target: Voltage-dependent T-type calcium channel subunit alpha-1H (Homo sapiens, UniProt O95180); assay: inhibition of CACNA1H calcium flux – cell-based, SynthLib3 library, HEK293 Cav3.2, fluorescence (AID 493041); assay type: functional
[27] = target: T4, Cytochrome P450 1A2 (Homo sapiens, UniProt P05177);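 further: PubChem cytochrome P450 panel assay, CYP1A2 panel member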
T4 sequence (P05177 whole entry): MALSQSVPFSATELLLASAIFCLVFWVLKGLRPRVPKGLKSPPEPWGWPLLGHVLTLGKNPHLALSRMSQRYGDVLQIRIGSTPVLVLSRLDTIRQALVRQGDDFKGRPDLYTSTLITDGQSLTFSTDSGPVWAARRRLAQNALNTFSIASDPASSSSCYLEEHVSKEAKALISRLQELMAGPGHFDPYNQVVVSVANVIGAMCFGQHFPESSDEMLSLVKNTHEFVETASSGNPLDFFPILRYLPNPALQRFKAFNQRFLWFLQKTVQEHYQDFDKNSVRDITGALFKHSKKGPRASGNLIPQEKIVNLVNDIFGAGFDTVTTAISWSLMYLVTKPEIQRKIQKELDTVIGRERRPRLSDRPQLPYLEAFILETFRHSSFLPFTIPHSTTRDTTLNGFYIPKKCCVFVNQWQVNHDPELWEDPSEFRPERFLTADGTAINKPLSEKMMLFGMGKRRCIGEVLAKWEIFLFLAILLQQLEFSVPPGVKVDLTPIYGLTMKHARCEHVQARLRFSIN

[28] = target: Cytochrome P450 2C9 (Homo sapiens, UniProt P11712)
[29] = target: Cytochrome P450 3A4 (Homo sapiens, UniProt P08684);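 further: CYP3A4 tested as one member of a cytochrome P450 panel screen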
[30] = target: T4, Cytochrome P450 1A2; remark: listed apart in the source

Chain of Cytochrome P450 3A4 (P08684 whole entry): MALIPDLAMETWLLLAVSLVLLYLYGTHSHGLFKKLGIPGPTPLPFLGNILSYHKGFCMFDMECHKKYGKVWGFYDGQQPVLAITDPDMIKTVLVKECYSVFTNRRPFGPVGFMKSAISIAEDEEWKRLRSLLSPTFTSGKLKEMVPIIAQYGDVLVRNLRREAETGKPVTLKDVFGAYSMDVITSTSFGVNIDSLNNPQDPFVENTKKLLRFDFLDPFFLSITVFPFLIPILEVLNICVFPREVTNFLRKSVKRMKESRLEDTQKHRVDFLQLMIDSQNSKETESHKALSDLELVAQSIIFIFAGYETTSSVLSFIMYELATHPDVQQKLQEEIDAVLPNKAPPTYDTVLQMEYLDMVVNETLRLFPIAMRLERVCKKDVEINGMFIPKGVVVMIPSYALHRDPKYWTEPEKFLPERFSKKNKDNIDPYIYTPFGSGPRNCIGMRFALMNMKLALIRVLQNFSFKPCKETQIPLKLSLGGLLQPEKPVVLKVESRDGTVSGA
Chain of Voltage-dependent T-type calcium channel subunit alpha-1H (O95180 whole entry): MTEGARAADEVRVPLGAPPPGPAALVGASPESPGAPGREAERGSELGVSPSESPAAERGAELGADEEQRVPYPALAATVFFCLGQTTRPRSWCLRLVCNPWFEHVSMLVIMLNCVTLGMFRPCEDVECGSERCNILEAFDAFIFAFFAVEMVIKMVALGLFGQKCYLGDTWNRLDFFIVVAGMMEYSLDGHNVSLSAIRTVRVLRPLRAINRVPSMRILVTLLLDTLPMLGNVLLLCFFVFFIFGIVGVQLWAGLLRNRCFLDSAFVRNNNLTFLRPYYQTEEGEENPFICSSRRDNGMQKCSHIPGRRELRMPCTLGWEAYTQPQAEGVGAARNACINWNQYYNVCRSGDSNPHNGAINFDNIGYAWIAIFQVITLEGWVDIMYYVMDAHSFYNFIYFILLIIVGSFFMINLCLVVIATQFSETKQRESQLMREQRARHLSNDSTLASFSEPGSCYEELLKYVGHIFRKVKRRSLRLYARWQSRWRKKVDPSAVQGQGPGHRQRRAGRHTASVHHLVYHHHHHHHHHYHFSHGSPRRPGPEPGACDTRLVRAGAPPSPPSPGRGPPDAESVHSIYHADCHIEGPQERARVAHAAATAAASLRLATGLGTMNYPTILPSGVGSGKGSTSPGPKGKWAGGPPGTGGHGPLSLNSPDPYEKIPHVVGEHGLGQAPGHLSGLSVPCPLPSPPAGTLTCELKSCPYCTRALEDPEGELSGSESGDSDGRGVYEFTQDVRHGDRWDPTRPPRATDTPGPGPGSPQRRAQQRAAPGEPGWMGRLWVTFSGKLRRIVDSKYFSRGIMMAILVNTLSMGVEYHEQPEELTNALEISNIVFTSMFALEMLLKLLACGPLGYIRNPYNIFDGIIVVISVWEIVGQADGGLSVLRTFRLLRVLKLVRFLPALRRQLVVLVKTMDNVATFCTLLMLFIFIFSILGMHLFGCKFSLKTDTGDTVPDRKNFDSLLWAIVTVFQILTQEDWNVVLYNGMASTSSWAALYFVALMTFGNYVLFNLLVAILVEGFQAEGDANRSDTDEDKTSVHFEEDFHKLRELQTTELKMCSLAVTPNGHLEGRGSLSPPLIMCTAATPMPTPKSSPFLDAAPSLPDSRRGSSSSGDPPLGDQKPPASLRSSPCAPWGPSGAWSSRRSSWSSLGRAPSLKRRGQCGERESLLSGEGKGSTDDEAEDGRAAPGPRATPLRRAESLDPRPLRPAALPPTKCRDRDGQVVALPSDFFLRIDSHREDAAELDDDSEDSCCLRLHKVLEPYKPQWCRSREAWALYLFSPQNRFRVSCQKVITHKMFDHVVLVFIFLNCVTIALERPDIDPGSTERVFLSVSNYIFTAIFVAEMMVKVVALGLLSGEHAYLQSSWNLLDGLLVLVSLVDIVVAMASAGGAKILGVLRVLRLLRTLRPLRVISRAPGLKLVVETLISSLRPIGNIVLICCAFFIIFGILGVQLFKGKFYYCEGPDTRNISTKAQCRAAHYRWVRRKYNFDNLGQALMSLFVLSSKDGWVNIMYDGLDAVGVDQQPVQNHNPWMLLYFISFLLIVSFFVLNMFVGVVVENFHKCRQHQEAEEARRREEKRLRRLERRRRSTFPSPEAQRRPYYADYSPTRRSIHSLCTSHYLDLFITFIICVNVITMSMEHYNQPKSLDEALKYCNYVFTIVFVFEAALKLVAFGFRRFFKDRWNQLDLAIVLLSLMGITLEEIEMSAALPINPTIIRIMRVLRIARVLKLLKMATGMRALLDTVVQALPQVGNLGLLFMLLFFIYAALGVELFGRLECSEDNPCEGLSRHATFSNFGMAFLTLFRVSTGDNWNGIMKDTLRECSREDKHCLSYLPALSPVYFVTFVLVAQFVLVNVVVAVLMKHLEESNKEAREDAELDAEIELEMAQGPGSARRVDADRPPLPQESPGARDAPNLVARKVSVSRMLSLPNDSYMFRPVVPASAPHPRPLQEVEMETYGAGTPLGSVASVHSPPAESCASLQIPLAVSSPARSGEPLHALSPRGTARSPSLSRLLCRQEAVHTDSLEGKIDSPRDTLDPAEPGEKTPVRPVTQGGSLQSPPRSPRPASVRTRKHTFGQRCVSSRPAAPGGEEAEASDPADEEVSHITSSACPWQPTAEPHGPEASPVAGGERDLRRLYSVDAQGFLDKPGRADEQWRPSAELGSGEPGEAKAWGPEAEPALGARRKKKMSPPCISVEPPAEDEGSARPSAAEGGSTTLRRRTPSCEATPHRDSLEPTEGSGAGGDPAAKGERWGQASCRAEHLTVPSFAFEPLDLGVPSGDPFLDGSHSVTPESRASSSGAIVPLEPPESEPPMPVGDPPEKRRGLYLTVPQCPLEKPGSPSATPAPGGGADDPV
Chain of Voltage-gated inwardly rectifying potassium channel KCNH2 (Q12809 whole entry): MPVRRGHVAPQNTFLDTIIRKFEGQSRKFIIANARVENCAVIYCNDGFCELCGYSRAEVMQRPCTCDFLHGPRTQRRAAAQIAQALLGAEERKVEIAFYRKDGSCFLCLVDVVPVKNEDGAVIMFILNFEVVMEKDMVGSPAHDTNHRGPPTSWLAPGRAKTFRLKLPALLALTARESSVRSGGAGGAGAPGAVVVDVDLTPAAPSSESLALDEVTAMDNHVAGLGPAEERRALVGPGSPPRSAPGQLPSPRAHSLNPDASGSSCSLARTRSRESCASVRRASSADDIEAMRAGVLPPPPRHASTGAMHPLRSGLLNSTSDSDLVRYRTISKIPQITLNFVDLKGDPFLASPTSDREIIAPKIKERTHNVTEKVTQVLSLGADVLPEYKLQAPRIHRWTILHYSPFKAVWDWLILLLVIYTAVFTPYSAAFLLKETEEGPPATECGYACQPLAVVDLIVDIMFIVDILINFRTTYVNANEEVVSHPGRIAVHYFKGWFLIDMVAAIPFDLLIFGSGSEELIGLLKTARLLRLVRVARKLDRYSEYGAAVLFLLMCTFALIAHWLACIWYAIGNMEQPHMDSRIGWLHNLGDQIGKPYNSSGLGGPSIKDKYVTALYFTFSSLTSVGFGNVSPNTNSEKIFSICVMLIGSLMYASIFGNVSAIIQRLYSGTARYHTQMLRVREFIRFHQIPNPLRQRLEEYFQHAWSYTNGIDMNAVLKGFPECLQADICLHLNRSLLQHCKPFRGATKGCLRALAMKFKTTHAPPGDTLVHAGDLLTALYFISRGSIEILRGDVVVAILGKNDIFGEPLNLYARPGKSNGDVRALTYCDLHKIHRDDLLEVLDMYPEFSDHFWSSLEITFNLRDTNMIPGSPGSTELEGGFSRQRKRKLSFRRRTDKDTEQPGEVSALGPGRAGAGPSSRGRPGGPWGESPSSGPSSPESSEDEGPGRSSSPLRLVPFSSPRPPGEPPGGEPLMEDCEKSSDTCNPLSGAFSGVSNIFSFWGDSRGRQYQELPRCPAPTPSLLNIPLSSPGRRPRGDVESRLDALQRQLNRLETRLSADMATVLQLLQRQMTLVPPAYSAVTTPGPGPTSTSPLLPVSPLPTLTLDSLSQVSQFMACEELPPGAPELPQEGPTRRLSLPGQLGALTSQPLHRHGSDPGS
Chain of Delta-type opioid receptor (P41143 whole entry): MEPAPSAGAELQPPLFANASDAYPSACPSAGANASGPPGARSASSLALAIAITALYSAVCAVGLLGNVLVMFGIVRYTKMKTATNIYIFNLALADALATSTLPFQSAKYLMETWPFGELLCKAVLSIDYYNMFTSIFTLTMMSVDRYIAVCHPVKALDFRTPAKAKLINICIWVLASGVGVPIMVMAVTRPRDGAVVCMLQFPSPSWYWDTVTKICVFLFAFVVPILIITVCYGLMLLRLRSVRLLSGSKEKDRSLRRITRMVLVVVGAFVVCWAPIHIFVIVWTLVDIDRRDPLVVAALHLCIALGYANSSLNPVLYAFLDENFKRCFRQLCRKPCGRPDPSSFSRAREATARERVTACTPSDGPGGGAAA
Chain of CAAX prenyl protease 2 (Homo sapiens, UniProt Q9Y256) (Q9Y256 whole entry): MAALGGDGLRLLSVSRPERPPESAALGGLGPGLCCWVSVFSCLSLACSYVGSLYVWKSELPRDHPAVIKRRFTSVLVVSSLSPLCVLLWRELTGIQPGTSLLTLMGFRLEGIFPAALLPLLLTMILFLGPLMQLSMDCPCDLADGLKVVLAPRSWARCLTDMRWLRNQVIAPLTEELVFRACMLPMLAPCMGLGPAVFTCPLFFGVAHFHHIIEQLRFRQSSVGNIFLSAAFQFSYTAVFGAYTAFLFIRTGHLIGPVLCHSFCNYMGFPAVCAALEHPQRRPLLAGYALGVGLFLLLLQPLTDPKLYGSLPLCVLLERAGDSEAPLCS
Chain of 5-hydroxytryptamine receptor 5A (P47898 whole entry): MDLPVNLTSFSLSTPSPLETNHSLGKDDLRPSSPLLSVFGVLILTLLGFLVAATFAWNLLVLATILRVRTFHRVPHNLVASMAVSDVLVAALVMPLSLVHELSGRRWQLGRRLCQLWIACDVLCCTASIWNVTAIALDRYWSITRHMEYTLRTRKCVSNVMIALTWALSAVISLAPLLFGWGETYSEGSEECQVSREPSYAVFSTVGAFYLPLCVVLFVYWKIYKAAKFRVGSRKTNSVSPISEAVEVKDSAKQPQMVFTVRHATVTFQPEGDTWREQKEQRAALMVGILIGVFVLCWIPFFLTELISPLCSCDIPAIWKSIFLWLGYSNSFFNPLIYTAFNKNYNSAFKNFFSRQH

Cc1ccc(OCCN2C(=O)C(=O)c3cc(C)ccc32)cc1
AC50 [1]: 24.2 µM (active)
AC50 [2]: 1.6 µM (active)
AC50 [3]: 145 µM (active)
AC50 [4]: 4.64 µM (active)
AC50 [5]: 12.8 µM (active)

Cc1ccc([N+](=O)[O-])cc1N1C(=O)CS/C1=N\NC(=O)c1cccnc1
AC50 [6]: 48.7 µM (active)
AC50 [7]: > 35 µM (active)
AC50 [8]: > 35 µM (active)

N=c1c2c(n(Cc3ccc(Br)cc3)c3c1CCC3)CCCC2
EC50 [9]: 0.26 µM (active)
EC50 [10]: > 60 µM (inconclusive)
IC50 [11]: 24.6 µM (inactive)
IC50 [12]: > 80 µM (inactive)
AC50 [13]: 2.64 µM (active)

COc1ccc2nc(Nc3nc(C)c(CCC(C)C)c(O)n3)nc(C)c2c1
IC50 [14]: 1.95 µM (active)
IC50 [15]: 5.61 µM (active)

Cc1cccc(C(=O)NNC(=S)NC(=O)c2cccs2)c1
EC50 [16]: > 160 µM (inactive)
EC50 [17]: 2.47 µM (active)
EC50 [18]: 5.96 µM (active)
IC50 [19]: 23.5 µM (active)
CC50 [20]: > 25 µM (active)

COc1ccc(C(=O)C2CCCN(CCc3ccccc3)C2)cc1OC (stereo unspecified)
EC50 [21]: 0.0558 µM (active)

CN1C(CC(=O)Nc2ccc(Br)cc2)c2ccccc2CC1(C)C (stereo unspecified)
EC50 [18]: 2.11 µM (active)
EC50 [22]: 86.4 µM (inactive)
EC50 [23]: > 92.5 µM (inactive)
EC50 [24]: > 92.5 µM (inactive)

N[C@@H](Cc1ccc(F)cc1)C(=O)O
AC50 [25]: 35.5 µM (inconclusive)

CC(C)CN1C[C@@H]2C(CNC(=O)c3cc(Cl)cc(Cl)c3)[C@@H]2C1 (stereo partly specified)
EC50 [26]: 10 µM (active)

CC(NC(=O)c1ccc(N2CCCC2=O)cc1)c1ccccc1 (stereo unspecified)
AC50 [27]: 39.8 µM (inconclusive)
AC50 [28]: 15.8 µM (inconclusive)
AC50 [29]: inconclusive

COc1ccccc1OC[C@H](O)CN1CCN(CC(=O)Nc2c(C)cccc2C)CC1
AC50 [30]: inactive
